According to patent US11083735B2, “Methods for treating sleep disorders, sleep disturbances, and related symptoms using aminosterol compositions” (Enterin, Inc., priority 2017, dated 2021):

Experiments:
[1] = Pharmacokinetics of orally administered squalamine (ENT-01) in Stage 1; assay type: in vivo, human; details: for AUC0-8 hr / AUC0-16 hr / Tmax (Median Value) / Cmax: Stage 1, oral; for Cmax: squalamine ion, mean
Protocol: Pharmakokinetics: PK data were collected on the 10 patients enrolled in Stage 1 and 10 patients enrolled in Stage 2 to determine the extent of systemic absorption. In Stage 1, PK data were obtained at each visit, pre-medication, at 1, 2, 4, 8 and 24 hours (Table 14). In Stage 2, PK was measured on days 1 and 6 of the randomization period pre-medication, at 1, 2, 4 and 8 hours (Table 15). […] Hao et al. 2003). The mean Cmax, Tmax and T1/2 and AUC of the squalamine ion following squalamine (ENT-01) oral dosing for Stage 1 patients. […] The mean Cmax, Tmax and T1/2 and AUC of the squalamine ion following squalamine (ENT-01) oral dosing for Stage 2 patients. The PK analyses are only approximate, as the lower limit of the validated concentration range was 0.5 ng/ml.

[2] = tested on: patients with PD and constipation; assay: Phase 2 trial Stage 2 (daily dosing): bowel function, stool related indices; assay type: in vivo, human; details: for response rate: Stage 2 daily dosing
Description: (2) Rome-IV Criteria for Constipation (7 criteria, with constipation diagnosis requiring two or more of the following: (i) straining during at least 25% of defecations, (ii) lumpy or hard stools in at least 25% of defecations, (iii) sensation of incomplete evacuation for at least 25% of defecations, (iv) sensation of anorectal obstruction/blockage for at least 25% of defecations; (v) manual maneuvers to facilitate at least 25% of defecations; (vi) fewer than 3 defecations per week; and (vii) loose stools are rarely present without the use of laxatives;
(3) Constipation—Ease of Evacuation Scale (from 1-7, with 7=incontinent, 4=normal, and 1=manual disimpaction);
(4) Bristol Stool Chart, which is a patient-friendly means of categorizing stool characteristics (assessment of stool consistency is a validated surrogate of intestinal motility) and Stool Diary;
(14) Patient Assessment of Constipation Symptoms (PAC-SYM);
(15) Patient Assessment of Constipation Quality of Life (PAC-QOL);
In Stage 2, 34 patients were evaluated.
The primary efficacy outcome variable was whether or not a subject was a “success” or “failure”. This is an endpoint based on subject diary entries for the “fixed dose” period prior to the endpoint assessment defined as average complete stool frequency increase by 1 or more over baseline, or 3 or more complete spontaneous stools/week. The subject was deemed a “success” if s/he met one or more of the criteria listed above, otherwise the subject was deemed a “failure”. The primary analysis was based on all subjects with a baseline assessment and an assessment at the end of the “fixed-dose” period and was a comparison of the proportion of successes with 0.10 (the null hypothesis corresponding to no treatment effect).
The proportion of subjects for whom the drug was a success was estimated with a binomial point estimate and corresponding 95% confidence interval. A secondary analysis compared the proportions of subjects who are deemed a success at the end of the randomized fixed-dose period between those randomized to the squalamine (ENT-01) arm and those randomized to the placebo arm. A Fisher's exact test was used to compare the proportions of subjects who were deemed a success at the end of randomization period between the two randomized arms.

CC(C)[C@@H](CC[C@@H](C)[C@H]1CC[C@H]2[C@@H]3[C@H](O)C[C@H]4C[C@@H](NCCCNCCCCN)CC[C@]4(C)[C@H]3CC[C@]12C)OS(=O)(=O)O (single isomer, unassigned; ent-01) [ENT-01]
approximate oral bioavailability ([1]; Stage 1, oral dosing up to 200 mg (114 mg/m^2), compared with prior phase 1 IV pharmacokinetic data): about 0.1% | AUC0-8 hr ([1]; dose 25 mg): 10.8 ng·h/mL | AUC0-16 hr ([1]; dose 25 mg): 19.6 ng·h/mL | Tmax (Median Value) ([1]; dose 25 mg): 1.0 h | Cmax ([1]; dose 25 mg): 2.84 ng/mL | AUC0-8 hr ([1]; dose 50 mg): 18.5 ng·h/mL | AUC0-16 hr ([1]; dose 50 mg): 33.1 ng·h/mL | Tmax (Median Value) ([1]; dose 50 mg): 2.0 h | Cmax ([1]; dose 50 mg): 3.73 ng/mL | AUC0-8 hr ([1]; dose 75 mg): 18.4 ng·h/mL | AUC0-16 hr ([1]; dose 75 mg): 29.8 ng·h/mL | Tmax (Median Value) ([1]; dose 75 mg): 2.0 h | Cmax ([1]; dose 75 mg): 4.33 ng/mL | AUC0-8 hr ([1]; dose 100 mg): 29.6 ng·h/mL | AUC0-16 hr ([1]; dose 100 mg): 51.5 ng·h/mL | Tmax (Median Value) ([1]; dose 100 mg): 2.0 h | Cmax ([1]; dose 100 mg): 6.18 ng/mL | AUC0-8 hr ([1]; dose 125 mg): 43.1 ng·h/mL | AUC0-16 hr ([1]; dose 125 mg): 77.7 ng·h/mL | Tmax (Median Value) ([1]; dose 125 mg): 2.0 h | Cmax ([1]; dose 125 mg): 9.63 ng/mL | AUC0-8 hr ([1]; dose 150 mg): 31.5 ng·h/mL | AUC0-16 hr ([1]; dose 150 mg): 64.0 ng·h/mL | Tmax (Median Value) ([1]; dose 150 mg): 2.0 h | Cmax ([1]; dose 150 mg): 6.27 ng/mL | AUC0-8 hr ([1]; dose 175 mg): 49.7 ng·h/mL | AUC0-16 hr ([1]; dose 175 mg): 91.2 ng·h/mL | Tmax (Median Value) ([1]; dose 175 mg): 2.0 h | Cmax ([1]; dose 175 mg): 10.3 ng/mL | AUC0-8 hr ([1]; dose 200 mg): 78.3 ng·h/mL | AUC0-16 hr ([1]; dose 200 mg): 157 ng·h/mL | Tmax (Median Value) ([1]; dose 200 mg): 2.0 h | Cmax ([1]; dose 200 mg): 15.1 ng/mL | oral bio-availability ([1]; estimated from PK of intravenously administered squalamine in prior clinical studies): less than 0.3% | Median efficacious dose ([2]; Stage 2): 100 mg | CSBM, Fixed dose (mean, SD) ([2]; Stage 2, Table 12, baseline 1.2 (0.90)): 3.8 | PAQ-SYM, Fixed dose (Mean, SD) ([2]; Stage 2, Table 12, baseline 1.3 (0.45)): 1.1 | PAQ-QOL, Fixed dose (Mean, SD) ([2]; Stage 2, Table 12, baseline 1.4 (0.49)): 1.2 | Rescue meds, Fixed dose (Mean, SD) ([2]; Stage 2, Table 12, baseline 1.8 (1.92)): 0.3 | SBM, Fixed dose (mean, SD) ([2]; Stage 2, Table 12, baseline 2.6 (1.45)): 4.5 | Consistency, Fixed dose (mean, SD) ([2]; Stage 2, Table 12, baseline 2.7 (1.20)): 4.1 | Ease, Fixed dose (Mean, SD) ([2]; Stage 2, Table 12, baseline 3.2 (0.73)): 3.7 | PAC-SYM, Fixed dose (mean, SD) ([2]; Stage 2, dosed patients n = 34, baseline 1.3 (0.45)): 1.1 (0.49) | PAC-QOL total, Fixed dose (mean, SD) ([2]; Stage 2, dosed patients n = 34, baseline 1.4 (0.49)): 1.2 (0.59) | CSBM, Fixed dose (mean, SD) ([2]; Stage 2, dosed patients n = 34, weekly average, baseline 1.2 (0.90)): 3.8 (2.40) | Suppository use, Fixed dose (mean, SD) ([2]; Stage 2, dosed patients n = 34, weekly average, baseline 1.8 (1.92)): 0.3 (0.67) | SBM, Fixed dose (mean, SD) ([2]; Stage 2, dosed patients n = 34, weekly average, baseline 2.6 (1.45)): 4.5 (2.21) | Consistency, Fixed dose (mean, SD) ([2]; Stage 2, n = 34, Bristol stool scale 1-7, 1 = separate hard lumps, 7 = liquid consistency, baseline 2.7 (1.20)): 4.1 (2.13) | Ease of passage, Fixed dose (mean, SD) ([2]; Stage 2, n = 34, Ease of evacuation scale, 1-manual disimpaction, 7 = incontinent, baseline 3.2 (0.73)): 3.7 (1.19) | CSBM, Wash-out (Mean, SD) ([2]; Stage 2, wash-out period, baseline 1.2 (0.90)): 1.8 (1.19) | PAQ-SYM, Wash-out (Mean, SD) ([2]; Stage 2, wash-out period, baseline 1.3 (0.45)): 1.1 (0.60) | PAQ-QOL, Wash-out (Mean, SD) ([2]; Stage 2, wash-out period, baseline 1.4 (0.49)): 1.2 (0.63) | Rescue meds, Wash-out (Mean, SD) ([2]; Stage 2, wash-out period, baseline 1.8 (1.92)): 1.0 (1.40) | SBM, Wash-out (Mean, SD) ([2]; Stage 2, wash-out period, baseline 2.6 (1.45)): 3.2 (1.80) | Consistency, Wash-out (Mean, SD) ([2]; Stage 2, wash-out period, baseline 2.7 (1.20)): 2.8 (1.39) | Ease, Wash-out (Mean, SD) ([2]; Stage 2, wash-out period, baseline 3.2 (0.73)): 3.3 (0.81) | response rate ([2]; 75 mg): 26% | response rate ([2]; 250 mg): 85.3% | Average CSBM/week ([2]; at fixed dose, baseline 1.2): 3.8 | Use of rescue medication ([2]; at fixed dose, baseline 1.8/week): 0.3 /week | SBM ([2]; at fixed dose, baseline 2.6): 4.5 | CSBM frequency ([2]; beyond the treatment period (wash-out)): remained significantly above baseline value | Subjective indices of wellbeing (PAC-QOL) ([2]; during treatment): improved | constipation symptoms (PAC-SYM) ([2]; during treatment): improved | CSBM/week ([2]; patients later randomized to Placebo (n = 9), Fixed dose period on drug, Baseline 1.6): 3.3 | dose for a bowel response, mean ([2]; patients with baseline constipation of <1 CSBM/week): 192 mg | dose for a bowel response, mean ([2]; patients with ≥1 CSBM/week at baseline): 120 mg | CSBM/week ([2]; randomized cohort, Treatment (n = 6), Fixed dose, Baseline 0.8): 3.2 | CSBM/week ([2]; randomized cohort, Treatment (n = 6), Randomized period): 2.4 | CSBM/week ([2]; randomized cohort, Treatment (n = 6), Washout): 0.9 | Consistency based on the Bristol stool scale, mean ([2]; treatment, from 2.7): 4.1 | ease of passage ([2]; treatment, from 3.2): 3.7 | patients responding ([2]; within 75 mg to 250 mg): 85%
